Laboratory results: the CheMixHub viscosity set

Assay: xn = mol fraction of the nth substance listed

CCOCCO + C1COCO1
298.15 K, 101 kPa
Settings | viscosity [mPa·s]
x2 = 0.1191 | 1.605
x2 = 0.2332 | 1.379
x2 = 0.3427 | 1.187
x2 = 0.4478 | 1.03
x2 = 0.5488 | 0.9124
x2 = 0.646 | 0.8144
x2 = 0.7395 | 0.7365
x2 = 0.8295 | 0.6706
x2 = 0.9163 | 0.6129

Cc1ccc([S@@](=O)O[C@@H]2C[C@H](C)CC[C@H]2C(C)C)cc1 + CCCCO
298 K, 101.3 kPa
Settings | viscosity [mPa·s]
x1 = 0.00223 | 2.53
x1 = 0.0043 | 2.548
x1 = 0.00647 | 2.573
x1 = 0.0087 | 2.586
x1 = 0.01163 | 2.628

Cc1cccc(Cl)c1 + OC1CCCCC1
303.15 K, 101 kPa
Settings | viscosity [mPa·s]
x2 = 0.1126 | 5.006
x2 = 0.222 | 9.158
x2 = 0.3285 | 13.26
x2 = 0.4321 | 17.37
x2 = 0.533 | 21.44
x2 = 0.6313 | 25.48
x2 = 0.727 | 29.41
x2 = 0.8203 | 33.31
x2 = 0.9113 | 37.2

CC(C)CCO + CN(C)C=O
Settings | viscosity [mPa·s]
298.15 K, 101 kPa, x2 = 0.5467 | 1.634

C[C@@H](O)[C@H](N)C(=O)[O-].[Na+] + O
viscosity [mPa·s], 101 kPa
Settings | x1 = 0.004484 | x1 = 0.008927 | x1 = 0.01333 | x1 = 0.0177 | x1 = 0.02202 | x1 = 0.02631 | x1 = 0.03478 | x1 = 0.0431 | x1 = 0.05127
293.15 K | 1.122 | 1.27 | 1.439 | 1.636 | 1.856 | 2.096 | 2.659 | 3.317 | 4.073
303.15 K | 0.9 | 1.012 | 1.138 | 1.279 | 1.425 | 1.594 | 1.993 | 2.414 | 2.986
313.15 K | 0.734 | 0.821 | 0.914 | 1.024 | 1.132 | 1.258 | 1.55 | 1.858 | 2.25
323.15 K | 0.612 | 0.681 | 0.755 | 0.84 | 0.925 | 1.021 | 1.242 | 1.482 | 1.767

CCOCCO + Nc1ccccc1
303.15 K, 101 kPa
Settings | viscosity [mPa·s]
x2 = 0.1062 | 2.266
x2 = 0.2109 | 2.394
x2 = 0.3142 | 2.523
x2 = 0.4162 | 2.74
x2 = 0.5167 | 2.94
x2 = 0.616 | 3.114
x2 = 0.7139 | 3.277
x2 = 0.8105 | 3.435
x2 = 0.9059 | 3.595

CNCCO + COCCO
viscosity [mPa·s], 101.3 kPa
Settings | 293.15 K | 298.15 K | 303.15 K | 308.15 K | 313.15 K | 318.15 K | 323.15 K
x1 = 0.101 | 2.086 | 1.866 | 1.677 | 1.516 | 1.375 | 1.254 | 1.147
x1 = 0.303 | 3.283 | 2.869 | 2.523 | 2.234 | 1.988 | 1.78 | 1.601
x1 = 0.403 | 3.985 | 3.444 | 3 | 2.632 | 2.324 | 2.064 | 1.843
x1 = 0.503 | 4.964 | 4.234 | 3.644 | 3.163 | 2.766 | 2.435 | 2.156
x1 = 0.703 | 7.364 | 6.129 | 5.157 | 4.384 | 3.762 | 3.256 | 2.839
x1 = 0.901 | 10.98 | 8.877 | 7.286 | 6.054 | 5.088 | 4.323 | 3.709

CC(C)CCO + OCCCO
viscosity [mPa·s], 100 kPa
Settings | x1 = 0.0679 | x1 = 0.1388 | x1 = 0.218 | x1 = 0.3009 | x1 = 0.4084 | x1 = 0.4979 | x1 = 0.6034 | x1 = 0.7212 | x1 = 0.8537
298.15 K | 37.92 | 35.56 | 32.86 | 29.98 | 26.12 | 22.84 | 18.89 | 14.42 | 9.305
303.15 K | 30.13 | 28.24 | 26.14 | 23.83 | 20.79 | 18.2 | 15.09 | 11.57 | 7.532
308.15 K | 25.86 | 24.27 | 22.55 | 20.66 | 18.08 | 15.91 | 13.3 | 10.25 | 6.745

CCOCCO + CCC(C)=O
298.15 K, 101 kPa
Settings | viscosity [mPa·s]
x2 = 0.1219 | 1.479
x2 = 0.2381 | 1.178
x2 = 0.3488 | 0.948
x2 = 0.4545 | 0.767
x2 = 0.5555 | 0.609
x2 = 0.6521 | 0.524
x2 = 0.7446 | 0.457
x2 = 0.8333 | 0.419
x2 = 0.9183 | 0.387

CCCCCCCCBr + ClC(Cl)(Cl)Cl
101 kPa
Settings | viscosity [mPa·s]
293.15 K, x1 = 0.0483 | 0.9339
293.15 K, x1 = 0.0969 | 0.9701
293.15 K, x1 = 0.1945 | 1.037
293.15 K, x1 = 0.3916 | 1.173
293.15 K, x1 = 0.5916 | 1.295
293.15 K, x1 = 0.7943 | 1.404
303.55 K, x1 = 0.0608 | 0.87
303.55 K, x1 = 0.0978 | 0.893
303.55 K, x1 = 0.1964 | 0.955
303.55 K, x1 = 0.3775 | 1.08
303.55 K, x1 = 0.5801 | 1.18
303.55 K, x1 = 0.8407 | 1.307
313.65 K, x1 = 0.0482 | 0.7513
313.65 K, x1 = 0.0973 | 0.7763
313.65 K, x1 = 0.1952 | 0.8276
313.65 K, x1 = 0.3945 | 0.9359
313.65 K, x1 = 0.5771 | 1.022
313.65 K, x1 = 0.7616 | 1.097

CCOCCO + NCCO
viscosity [mPa·s], 101 kPa
Settings | 293.15 K | 298.15 K | 303.15 K | 308.15 K | 313.15 K | 318.15 K | 323.15 K
x2 = 0.141 | 2.898 | 2.544 | 2.246 | 1.998 | 1.786 | 1.605 | 1.449
x2 = 0.387 | 5.417 | 4.594 | 3.935 | 3.401 | 2.963 | 2.6 | 2.297
x2 = 0.596 | 9.217 | 7.588 | 6.312 | 5.319 | 4.527 | 3.89 | 3.371
x2 = 0.775 | 14.17 | 11.37 | 9.259 | 7.642 | 6.388 | 5.402 | 4.614
x2 = 0.93 | 20.26 | 15.94 | 12.77 | 10.37 | 8.539 | 7.122 | 6.005

CC(C)CCO + ClCCCl
viscosity [mPa·s], 101 kPa
Settings | x1 = 0.1272 | x1 = 0.2201 | x1 = 0.3264 | x1 = 0.4302 | x1 = 0.5765 | x1 = 0.6639 | x1 = 0.8049 | x1 = 0.888
303.15 K | 0.743 | 0.797 | 0.9054 | 1.029 | 1.302 | 1.532 | 2.081 | 2.51
313.15 K | 0.6478 | 0.6865 | 0.7649 | 0.8579 | 1.065 | 1.23 | 1.619 | 1.91
323.15 K | 0.5786 | 0.603 | 0.665 | 0.7365 | 0.8917 | 1.015 | 1.309 | 1.507
